In patent US7105522B2, “HIV inhibiting pyrazinone derivatives” (Janssen Pharmaceutica, N.V., priority 2001, dated 2006):
Where two headings read alike, the source gives them in different places.

Experiments:
[1] = Cytotoxicity in mock-infected MT-4 cells (MTT); type: cell-based; conditions: human, OD 540 nm, read-out: CC50 (50% cytotoxic concentration)
Experimental: (§1) A rapid, sensitive and automated assay procedure was used for the in vitro evaluation of anti-HIV agents. […] Inhibition of the HIV-induced cytopathic effect was used as the end point. The viability of both HIV- and mock-infected cells was assessed spectrophotometrically via the in situ reduction of 3-(4,5-dimethylthiazol-2-yl)-2,5-diphenyltetrazolium bromide (MTT). […] The percent protection achieved by the compound in HIV-infected cells was calculated by the following formula:
(§2) [formula] whereby (ODT)HIV is the optical density measured with a given concentration of the test compound in HIV-infected cells; (ODC)HIV is the optical density measured for the control untreated HIV-infected cells; (ODC)MOCK is the optical density measured for the control untreated mock-infected cells; all optical density values were determined at 540 nm. […] The ratio of CC50 to IC50 was defined as the selectivity index (SI).

HIV-1 = assay: microbe, parasite or virus in culture; type: cell-based; conditions: for IC50: HIV-infected MT-4 cells, MTT, OD 540 nm, read-out: IC50 (50% inhibitory concentration, dose achieving 50% protection); for SI (selectivity index, ratio of CC50 to IC50): MT-4 cells
Experimental: A rapid, sensitive and automated assay procedure was used for the in vitro evaluation of anti-HIV agents. An […] T4-cell line, MT-4, which was previously shown (Koyanagi et al., Int. J. Cancer, 36, 445–451, 1985) to be highly susceptible to and permissive for HIV infection, served as the target cell line. Inhibition of the HIV-induced cytopathic effect was used as the end point. The viability of both HIV- and mock-infected cells was assessed spectrophotometrically via the in situ reduction of 3-(4,5-dimethylthiazol-2-yl)-2,5-diphenyltetrazolium bromide (MTT). The 50% cytotoxic concentration (CC50 in μM) was defined as the concentration of compound that reduced the absorbance of the mock-infected control sample by 50%. The percent protection achieved by the compound in HIV-infected cells was calculated by the following formula:
[formula] whereby (ODT)HIV is the optical density measured with a given concentration of the test compound in HIV-infected cells; (ODC)HIV is the optical density measured for the control untreated HIV-infected cells; (ODC)MOCK is the optical density measured for the control untreated mock-infected cells; all optical density values were determined at 540 nm. The dose achieving 50% protection according to the above formula was defined as the 50% inhibitory concentration (IC50 in μM). The ratio of CC50 to IC50 was defined as the selectivity index (SI).

mock-infected MT-4 cells = assay: Cytotoxicity in mock-infected MT-4 cells (MTT); type: cell-based; conditions: OD 540 nm, read-out: CC50 (50% cytotoxic concentration)
Experimental: as §1, §2

[2] = Human immunodeficiency virus 1, MT4

SMILES: Cc1cc(C#N)cc(C)c1Oc1nc(Nc2ccc(C#N)cc2)c(=O)n(C)c1C [Compound 1, 4-[[6-[(4-cyanophenyl)amino]-4,5-dihydro-3,4-dimethyl-5-oxopyrazinyl]oxy]-3,5-dimethyl-benzonitrile]
- CC50 [1]: 99.8 µM
- IC50 (HIV-1; [2]): 0.0063 µM
- SI (selectivity index, ratio of CC50 to IC50) (HIV-1): 15849

SMILES: Cc1ccccc1Oc1cn(C)c(=O)c(Nc2ccc(C#N)cc2)n1 [Compound 2, 4-[[3,4-dihydro-4-methyl-6-(2-methylphenoxy)-3-oxopyrazinyl]amino]-benzonitrile]
- CC50 (mock-infected MT-4 cells): 100 µM
- IC50 (HIV-1): 0.004 µM

SMILES: Cc1ccc(Oc2cn(C)c(=O)c(Nc3ccc(C#N)cc3)n2)c(C)c1 [Compound 3, 4-[[6-(2,4-dimethylphenoxy)-3,4-dihydro-4-methyl-3-oxopyrazinyl]amino]-benzonitrile]
- CC50 (mock-infected MT-4 cells): 95.1 µM
- IC50 (HIV-1): 0.0006 µM

SMILES: Cc1ccccc1Sc1cn(C)c(=O)c(Nc2ccc(C#N)cc2)n1 [Compound 4, 4-[[3,4-dihydro-4-methyl-6-[(2-methylphenyl)thio]-3-oxopyrazinyl]amino]-benzonitrile]
- CC50 [1]: 100 µM
- IC50 (HIV-1; [2]): 0.02 µM
- SI (selectivity index, ratio of CC50 to IC50) (HIV-1): 5012

SMILES: Cc1ccccc1Oc1nc(Nc2ccc(Cl)cc2)c(=O)n(C)c1C [Compound 6, 3-[(4-chlorophenyl)amino]-1,6-dimethyl-5-(2-methylphenoxy)-2(1H)-pyrazinone]
- CC50 [1]: 100 µM
- IC50 (HIV-1; [2]): 0.1 µM
- SI (selectivity index, ratio of CC50 to IC50) (HIV-1): 1000

SMILES: Cc1ccc(Oc2cn(C)c(=O)c(Nc3ccccc3)n2)c(C)c1 [Compound 7, 5-(2,4-dimethylphenoxy)-1-methyl-3-(phenylamino)-2(1H)-pyrazinone]
- CC50 [1]: 99.9 µM
- IC50 (HIV-1; [2]): 0.2 µM
- SI (selectivity index, ratio of CC50 to IC50) (HIV-1): 501

SMILES: Cc1ccc(Sc2nc(Nc3ccc(Cl)cc3)c(=O)n(C)c2C)c(C)c1 [Compound 8, 3-[(4-chlorophenyl)amino]-5-[(2,4-dimethylphenyl)thio]-1,6-dimethyl-2(1H)-pyrazinone]
- CC50 [1]: 100 µM
- IC50 (HIV-1; [2]): 0.501 µM
- SI (selectivity index, ratio of CC50 to IC50) (HIV-1): 200

SMILES: Cc1ccc(Oc2cn(Cc3ccccc3)c(=O)c(Nc3ccc(C#N)cc3)n2)c(C)c1 [Compound 9, 4-[[6-(2,4-dimethylphenoxy)-3,4-dihydro-3-oxo-4-(phenylmethyl)pyrazinyl]amino]-benzonitrile]
- CC50 [1]: 99.9 µM
- IC50 (HIV-1; [2]): 0.0316 µM
- SI (selectivity index, ratio of CC50 to IC50) (HIV-1): 3162
- melting point: 175 °C

SMILES: Cc1ccc(Oc2cn(C)c(=O)c(Nc3ccc(C(F)(F)F)cc3)n2)c(C)c1 [Compound 11, 5-(2,4-dimethylphenoxy)-1-methyl-3-[[4-(trifluoromethyl)phenyl]amino]-2(1H)-pyrazinone]
- CC50 [1]: 100 µM
- IC50 (HIV-1; [2]): 0.501 µM
- SI (selectivity index, ratio of CC50 to IC50) (HIV-1): 200

SMILES: Cc1cc(C)c(Sc2cn(C)c(=O)c(Nc3ccc(C#N)cc3)n2)c(C)c1 [Compound 13, 4-[[3,4-dihydro-4-methyl-3-oxo-6-[(2,4,6-trimethylphenyl)thio]pyrazinyl]amino]-benzonitrile]
- CC50 (mock-infected MT-4 cells): 99.7 µM
- IC50 (HIV-1): 0.0158 µM

SMILES: Cc1cc(C)c(Sc2cn(C)c(=O)c(Nc3ccc(Cl)cc3)n2)c(C)c1 [Compound 14, 3-[(4-chlorophenyl)amino]-1-methyl-5-[(2,4,6-trimethylphenyl)thio]-2(1H)-pyrazinone]
- CC50 [1]: 99.9 µM
- IC50 (HIV-1; [2]): 0.0794 µM
- SI (selectivity index, ratio of CC50 to IC50) (HIV-1): 1259

SMILES: Cc1cc(C)c(S(=O)(=O)c2cn(C)c(=O)c(Nc3ccc(C#N)cc3)n2)c(C)c1 [Compound 15, 4-[[3,4-dihydro-4-methyl-3-oxo-6-[(2,4,6-trimethylphenyl)sulfonyl]pyrazinyl]amino]-benzonitrile]
- CC50 (mock-infected MT-4 cells): 99.4 µM
- IC50 (HIV-1): 0.0079 µM

SMILES: Cc1ccc(S(=O)(=O)c2nc(Nc3ccc(C#N)cc3)c(=O)n(C)c2C)c(C)c1 [Compound 16, 4-[[6-[(2,4-dimethylphenyl)sulfonyl]-3,4-dihydro-4,5-dimethyl-3-oxopyrazinyl]amino]-benzonitrile]
- CC50 [1]: 99.9 µM
- IC50 (HIV-1; [2]): 0.0316 µM
- SI (selectivity index, ratio of CC50 to IC50) (HIV-1): 3162

SMILES: Cc1cc(C)c(S(=O)(=O)c2nc(Nc3ccc(C#N)cc3)c(=O)n(C)c2C)c(C)c1 [Compound 17, 4-[[3,4-dihydro-4,5-dimethyl-3-oxo-6-[(2,4,6-trimethylphenyl)sulfonyl]pyrazinyl]amino]-benzonitrile]
- CC50 [1]: 99.8 µM
- IC50 (HIV-1; [2]): 0.005 µM
- SI (selectivity index, ratio of CC50 to IC50) (HIV-1): 19953

SMILES: Cc1cc(C)c([S+]([O-])c2nc(Nc3ccc(C#N)cc3)c(=O)n(C)c2C)c(C)c1 (stereo not shown) [Compound 18]
- CC50 [1]: 100 µM
- IC50 (HIV-1; [2]): 0.004 µM
- SI (selectivity index, ratio of CC50 to IC50) (HIV-1): 25119

SMILES: Cc1ccccc1Oc1nc(Nc2ccc(C#N)cc2)c(=O)n(C)c1C [Compound 19, 4-[[3,4-dihydro-4,5-dimethyl-6-(2-methylphenoxy)-3-oxopyrazinyl]amino]-benzonitrile]
- CC50 [1]: 99.8 µM
- IC50 (HIV-1; [2]): 0.005 µM
- SI (selectivity index, ratio of CC50 to IC50) (HIV-1): 19953

SMILES: Cc1ccc(Oc2nc(Nc3ccc(C#N)cc3)c(=O)n(C)c2C)c(C)c1 [Compound 20, 4-[[6-(2,4-dimethylphenoxy)-3,4-dihydro-4,5-dimethyl-3-oxopyrazinyl]amino]-benzonitrile]
- CC50 [1]: 99.5 µM
- IC50 (HIV-1; [2]): 0.0025 µM
- SI (selectivity index, ratio of CC50 to IC50) (HIV-1): 39811

SMILES: Cc1ccc(Sc2cn(C)c(=O)c(Nc3ccc(C#N)cc3)n2)c(C)c1 [Compound 21, 4-[[6-[(2,4-dimethylphenyl)thio]-3,4-dihydro-4-methyl-3-oxopyrazinyl]amino]-benzonitrile]
- CC50 (mock-infected MT-4 cells): 99.8 µM
- IC50 (HIV-1): 0.005 µM

SMILES: Cc1ccc(Oc2cn(C)c(=O)c(Nc3ccc(Cl)cc3)n2)c(C)c1 [Compound 22, 3-[(4-chlorophenyl)amino]-5-(2,4-dimethylphenoxy)-1-methyl-2(1H)-pyrazinone]
- CC50 [1]: 100 µM
- IC50 (HIV-1; [2]): 0.02 µM
- SI (selectivity index, ratio of CC50 to IC50) (HIV-1): 5012

SMILES: Cc1ccc(Oc2nc(Nc3ccc(Cl)cc3)c(=O)n(C)c2C)c(C)c1 [Compound 23, 3-[(4-chlorophenyl)amino]-5-(2,4-dimethylphenoxy)-1,6-dimethyl-2(1H)-pyrazinone]
- CC50 [1]: 99.9 µM
- IC50 (HIV-1; [2]): 0.0501 µM
- SI (selectivity index, ratio of CC50 to IC50) (HIV-1): 1995

SMILES: Cc1ccccc1Sc1nc(Nc2ccc(C#N)cc2)c(=O)n(C)c1C [Compound 24, 4-[[3,4-dihydro-4,5-dimethyl-6-[(2-methylphenyl)thio]-3-oxopyrazinyl]amino]-benzonitrile]
- CC50 [1]: 99.9 µM
- IC50 (HIV-1; [2]): 0.0251 µM
- SI (selectivity index, ratio of CC50 to IC50) (HIV-1): 3981

SMILES: Cc1ccccc1Sc1nc(Nc2ccc(C#N)cc2)c(=O)n(Cc2ccccc2)c1C [Compound 27, 4-[[6-[(2-methylphenyl)thio]-5-methyl-3,4-dihydro-3-oxo-4-(phenylmethyl)pyrazinyl]amino]-benzonitrile]
- melting point: 195 °C

SMILES: Cc1ccccc1Sc1nc(Nc2ccc(C#N)cc2)c(=O)[nH]c1C [Compound 28, 4-[[3,4-dihydro-5-methyl-6-[(2-methylphenyl)thio]-3-oxopyrazinyl]amino]-benzonitrile]
- melting point: 290 to 291 °C
